# From US5545640A, “Protease inhibiting succinic acid derivatives” (Bio-Mega/Boehringer Ingeleheim Research Inc., priority 1995, dated 1996)
# Tests used:
# HIV protease = molecular target: T1, HIV protease (Human immunodeficiency virus type 1 group M subtype B, UniProt P04585); experiment: biochemical; conditions: recombinant HIV protease; decapeptide substrate; HPLC assay; read-out: IC50 (concentration causing 50% inhibition of HIV protease)
# T1 construct: an HIV-encoded enzyme known as HIV protease
# Source text: The procedure is based on the capacity of the test compound to inhibit enzymatic cleavage by HIV protease of a decapeptide (the substrate) having an amino acid sequence which includes a known HIV protease cleavage site of a HIV polyprotein; see H. G. Krausslich et al., Proc. Natl. Acad. Sci. USA, 86, 807 (1989).
# Anderson, S. Rakhit and C. Yoakim in the European patent application 443 560, published Aug. 28, 1991.
# [1] = test system: HIV (H9/HTLV-IIIB stock) in C8166 cells; experiment: Cell culture assay: inhibition of syncytia formation in HIV-infected C8166 cells (antiviral, anti-HIV effect); type: cell-based, HIV (HTLV-IIIB); human T4 cell line; conditions: Human immunodeficiency virus 1; C8166 cells; H9/HTLV-IIIB, 50 times TCID50; 72 h, 37°; read-out: EC50 (concentration causing 50% inhibition of syncytia formation)
# Source text: Typical of such procedures are those described by S. Harada and N. Yamamoto, Jpn. J. Cancer Res. (Gann), 76, 432 (1985), and S. Harada et al., Science, 229, 563 (1985). An assay based on the latter procedures is described in the examples hereinafter.
# In addition, Tables 1 to 8 list the results for exemplified compounds of formula 1 when assayed for antiviral (anti-HIV) effects according to the following protocol which is based on a cell culture assay previously described by Harada et al., supra. Transformed cells are used because of the rapidity with which HIV will replicate in the cells.
# 1. The test compound is dissolved in dimethylsulfoxide to a concentration of 5 mg/mL. The resultant solution .can be stored at 4° until use.
# 2. The resultant solution is diluted in RPMI 1640 (Gibco Laboratories, St. Lawrence, Mass., USA) to four times (4×) the final concentration which is to be tested. Once diluted in RPMI 1640, the solution is used in the cell culture assay within 4 h.
# 3. The latter solution (50 μL) is added to triplicate wells of a 96 well flat bottomed microtiter plate. RPMI (50 μL) also is added to control wells.
# 4. C8166 cells (5×10^4) in 50 μL of HEPES-buffered RPMI 1640 (pH=7.2), 10% heat inactivated fetal calf serum (FCS), […] gentamicin (complete media) are added to all wells.
# 5. Fifty times TCID50 of H9/HTLV-IIIB stock (stored in liquid nitrogen as cell culture supernatant in 50% FCS) in 100 μL of complete media is added to all wells. The infectious titer of the virus stocks is as previously determined by end point dilution on C8166 cells. The titer of stocks are stable for 6-12 months when stored at -193°.
# 6. Microtiter plates are then placed on level shelves of a 37°, 5% CO2 humidified incubator for 72 h.
# 7. Plates are then removed and centers of syncytia are counted in each well by low power phase contrast light microscopy. […] Control wells should have between 25 and 75 centers of syncytia per well.
# 8. Percent inhibition of syncytia formation is calculated by the formula: [formula]
# The concentration of the test compound which causes a 50% inhibition of syncytia formation, i.e. the EC50, is determined by using the technique of serial dilution of the working solution at step 3 and graphically plotting the observed percent inhibition of syncytia formation against the various concentrations of the test compound.
# In the following tables, assay results are listed for the exemplified compounds from the aforementioned recombinant HIV protease HPLC assay under the heading IC50 (nM) and from the cell culture assay under the heading EC50 (nM). Note that for some of the compounds listed in tables, the EC50 's have not been determined (ND).
SMILES,IC50 (HIV protease) [nM],EC50 [1] [nM]
CCC(CC)NC(=O)C[C@@H](C(=O)NC[C@@H](O)[C@H](Cc1ccccc1)NC(=O)COc1c(C)cc(C)cc1C)C(C)(C)C [Entry 70],4.6,1200
"CCC(CC)NC(=O)C[C@@H](C(=O)NC[C@@H](O)[C@H](Cc1ccccc1)NC(=O)COc1c(C)cccc1C)C(C)(C)C [Entry 71, N^1-(1-Ethylpropyl)-N^4 -{3(S)-{{(2,6-dimethylphenoxy)acetyl}amino}-2(R)-hydroxy-4-phenylbutyl}-3(R)-tert-butylbutanediamide]",3.5,645

# Second part, the molecule after the results:
IC50 (HIV protease) [nM],EC50 [1] [nM],SMILES
3,360,Cc1cccc(C)c1NC(=O)C[C@@H](C(=O)NC[C@@H](O)[C@H](Cc1ccccc1)NC(=O)OCc1ccccc1)C(C)(C)C [Entry 72]
2.6,620,Cc1cccc(C)c1NC(=O)C[C@@H](C(=O)NC[C@@H](O)[C@H](Cc1ccccc1)NC(=O)COc1c(C)cccc1C)C(C)(C)C [Entry 73]
2,370,Cc1ccc(C)c(C(=O)N[C@@H](Cc2ccccc2)[C@H](O)CNC(=O)[C@H](CC(=O)Nc2c(C)cccc2C)C(C)(C)C)c1 [Entry 74]
